Assay results taken from the supplement of paper PMC10307832.

What was measured:
Assay in all cases: relative viability (nuclei count vs DMSO), 5 days (fraction); higher = more cells survive
BEN = tested on: BEN
Outline: (§1)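 For relative viability, nuclei counts in treated wells were divided by those in vehicle wells. Lung cancer cell lines had been pin-tool dosed in 1536-well plates the day after seeding and cultured for 5 days, then fixed and stained in one step (final 0.05% Triton X-100, 1% formaldehyde, 1 ug/ml Hoechst) and imaged at 4×. Doses were one drug alone or a fixed anchor-drug dose plus five library-drug doses (not always all listed) in √10 steps, and values are duplicate-plate medians.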

NCI-H358 = tested on: NCI-H358
Outline: as §1

HCC-15 = tested on: HCC-15
Outline: as §1

COR-L 105 = tested on: COR-L 105
Outline: as §1

201T = tested on: 201T
Outline: as §1

PC-3 [JPC-3] = tested on: PC-3 [JPC-3]
Outline: as §1

SW 900 = tested on: SW 900
Outline: as §1

EMC-BAC-2 = tested on: EMC-BAC-2
Outline: as §1

NCI-H522 = tested on: NCI-H522
Outline: as §1

CAL-12T = tested on: CAL-12T
Outline: as §1

NCI-H520 = tested on: NCI-H520
Outline: as §1

Structure (SMILES): CCNC(=O)c1noc(-c2cc(C(C)C)c(O)cc2O)c1-c1ccc(CN2CCOCC2)cc1 [Luminespib] + CC(=O)Nc1cccc(-n2c(=O)n(C3CC3)c(=O)c3c(Nc4ccc(I)cc4F)n(C)c(=O)c(C)c32)c1 [Trametinib] (partner 0.02 µM)
- relative viability (BEN; first compound 0.02 µM): 0.481
- relative viability (BEN; first compound 0.06325 µM): 0.748
- relative viability (BEN; first compound 0.2 µM): 0.341
- relative viability (NCI-H358; first compound 0.002 µM): 0.142
- relative viability (NCI-H358; first compound 0.006325 µM): 0.133
- relative viability (NCI-H358; first compound 0.02 µM): 0.0934
- relative viability (NCI-H358; first compound 0.06325 µM): 0.0702
- relative viability (NCI-H358; first compound 0.2 µM): 0.0715
- relative viability (HCC-15; first compound 0.002 µM): 0.394
- relative viability (HCC-15; first compound 0.006325 µM): 0.364
- relative viability (HCC-15; first compound 0.02 µM): 0.391
- relative viability (HCC-15; first compound 0.06325 µM): 0.258
- relative viability (HCC-15; first compound 0.2 µM): 0.13
- relative viability (COR-L 105; first compound 0.002 µM): 0.46
- relative viability (COR-L 105; first compound 0.006325 µM): 0.43
- relative viability (COR-L 105; first compound 0.02 µM): 0.384
- relative viability (COR-L 105; first compound 0.06325 µM): 0.265
- relative viability (COR-L 105; first compound 0.2 µM): 0.278
- relative viability (201T; first compound 0.002 µM): 0.667
- relative viability (201T; first compound 0.006325 µM): 0.706
- relative viability (201T; first compound 0.02 µM): 0.675
- relative viability (201T; first compound 0.06325 µM): 0.67
- relative viability (201T; first compound 0.2 µM): 0.674
- relative viability (PC-3 [JPC-3]; first compound 0.002 µM): 0.75
- relative viability (PC-3 [JPC-3]; first compound 0.006325 µM): 0.682
- relative viability (PC-3 [JPC-3]; first compound 0.02 µM): 0.517
- relative viability (PC-3 [JPC-3]; first compound 0.06325 µM): 0.505
- relative viability (PC-3 [JPC-3]; first compound 0.2 µM): 0.457
- relative viability (SW 900; first compound 0.002 µM): 0.837
- relative viability (SW 900; first compound 0.006325 µM): 0.919
- relative viability (SW 900; first compound 0.02 µM): 0.659
- relative viability (SW 900; first compound 0.06325 µM): 0.165
- relative viability (SW 900; first compound 0.2 µM): 0.131
- relative viability (EMC-BAC-2; first compound 0.002 µM): 0.857
- relative viability (EMC-BAC-2; first compound 0.02 µM): 0.643
- relative viability (EMC-BAC-2; first compound 0.06325 µM): 0.619
- relative viability (EMC-BAC-2; first compound 0.2 µM): 0.247
- relative viability (NCI-H522; first compound 0.002 µM): 0.721
- relative viability (NCI-H522; first compound 0.006325 µM): 0.716
- relative viability (NCI-H522; first compound 0.02 µM): 0.693
- relative viability (NCI-H522; first compound 0.06325 µM): 0.635
- relative viability (NCI-H522; first compound 0.2 µM): 0.501
- relative viability (CAL-12T; first compound 0.002 µM): 0.321
- relative viability (CAL-12T; first compound 0.006325 µM): 0.356
- relative viability (CAL-12T; first compound 0.02 µM): 0.162
- relative viability (CAL-12T; first compound 0.06325 µM): 0.111
- relative viability (CAL-12T; first compound 0.2 µM): 0.117
- relative viability (NCI-H520; first compound 0.002 µM): 0.795
- relative viability (NCI-H520; first compound 0.006325 µM): 0.606
- relative viability (NCI-H520; first compound 0.02 µM): 0.371
- relative viability (NCI-H520; first compound 0.06325 µM): 0.114
- relative viability (NCI-H520; first compound 0.2 µM): 0.138
